This is an account of results in ChEMBL document CHEMBL1122859, “Novel vasopressin analogues that help define a minimum effective antagonist pharmacophore” (J Med Chem, 1985).

The Ki is the dissociation constant of the complex between target and ligand, obtained from inhibition or displacement. Higher therefore signals weaker binding.

Each structure is given as a SMILES string. Numbered stars: 1 amine (or outer) side, 2 acyl side, 3 side chain; on linkers, the order of the positions; unused ones are H or OH. Bridge positions count the residues as written; N and C are the ends. Square brackets hold non-standard residues; d marks the D form. Peptide text beside a SMILES is read from it. * marks the point of attachment. X1 = O=C(CC1(S[*:2])CCCCC1)[*:1]; NH(CH2)5NH2 = NCCCCCN*

Experiment [1] addresses T1, Vasopressin V2 receptor (Sus scrofa, UniProt P32307). The experiment in a line: Tested for inhibition of [3H]LVP binding to vasopressin receptor in medullary membranes of pig kidney. Type of experiment: cell membranes.
Experiment [2] addresses T1, Vasopressin V2 receptor. The experiment in a line: Tested for inhibition of vasopressin-stimulated adenylate cyclase of medullary membranes of pig kidney.
Another experiment deals with Rattus norvegicus. The experiment in a line: Dose required to lower urine osmolality to 300 mOsm/kg in rat. It is filed as functional.

T1 sequence (P32307 whole entry): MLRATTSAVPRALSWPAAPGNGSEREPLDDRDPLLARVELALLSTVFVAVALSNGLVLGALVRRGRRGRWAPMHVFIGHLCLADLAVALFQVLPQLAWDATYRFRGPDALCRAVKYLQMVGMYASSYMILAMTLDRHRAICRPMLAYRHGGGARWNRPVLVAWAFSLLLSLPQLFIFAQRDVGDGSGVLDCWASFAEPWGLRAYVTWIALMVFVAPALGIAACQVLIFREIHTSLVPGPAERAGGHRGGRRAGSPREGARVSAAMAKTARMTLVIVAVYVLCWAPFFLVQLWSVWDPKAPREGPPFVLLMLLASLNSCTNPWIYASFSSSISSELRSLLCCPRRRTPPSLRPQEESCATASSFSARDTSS

In the case of `CCOc1ccc(C[C@H]2NC(=O)CC3(CCCCC3)SSC[C@@H](C(=O)N3CCC[C@H]3C(=O)N[C@@H](CCCCN)C(N)=O)NC(=O)[C@H](CC(N)=O)NC(=O)[C@H](C(C)C)NC(=O)[C@H](Cc3ccccc3)NC2=O)cc1` [listing 1 of 2 here], the Ki came to 37 nM at Vasopressin V2 receptor [1] and 9.4 nM on Vasopressin V2 receptor [2].

Take `CCOc1ccc(C[C@H]2NC(=O)CC3(CCCCC3)SSC[C@@H](C(=O)N3CCC[C@H]3C(=O)N[C@@H](CCCCN)C(N)=O)NC(=O)[C@H](CC(N)=O)NC(=O)[C@H](C(C)C)NC(=O)[C@H](Cc3ccccc3)NC2=O)cc1` [listing 2 of 2 here]: the ED300 in the experiment with Rattus norvegicus was 0.022 mg/kg.

Take `CCOc1ccc(C[C@H]2NC(=O)CC3(CCCCC3)SSC[C@@H](C(=O)NCCCCCN)NC(=O)[C@H](CC(N)=O)NC(=O)[C@H](C(C)C)NC(=O)[C@H](Cc3ccccc3)NC2=O)cc1` [listing 1 of 2 here]: the Ki at Vasopressin V2 receptor [1] stood at 19 nM; at Vasopressin V2 receptor [2] it was 6.8 nM.

Consider `CCOc1ccc(C[C@H]2NC(=O)CC3(CCCCC3)SSC[C@@H](C(=O)NCCCCCN)NC(=O)[C@H](CC(N)=O)NC(=O)[C@H](C(C)C)NC(=O)[C@H](Cc3ccccc3)NC2=O)cc1` [listing 2 of 2 here], for which, in the experiment on Rattus norvegicus, the ED300 worked out at 0.094 mg/kg.

Turning to `CCOc1ccc(C[C@H]2NC(=O)CC3(CCCCC3)SSC[C@@H](C(=O)N[C@@H](CCCCN)C(N)=O)NC(=O)[C@H](CC(N)=O)NC(=O)[C@H](C(C)C)NC(=O)[C@H](Cc3ccccc3)NC2=O)cc1` [listing 1 of 2 here], the Ki on Vasopressin V2 receptor [1] is 26 nM; on Vasopressin V2 receptor [2], 5.8 nM.

Consider `CCOc1ccc(C[C@H]2NC(=O)CC3(CCCCC3)SSC[C@@H](C(=O)N[C@@H](CCCCN)C(N)=O)NC(=O)[C@H](CC(N)=O)NC(=O)[C@H](C(C)C)NC(=O)[C@H](Cc3ccccc3)NC2=O)cc1` [listing 2 of 2 here], for which the ED300 with Rattus norvegicus stood at 0.059 mg/kg.

For the molecule `CCOc1ccc(C[C@H]2NC(=O)CC3(CCCCC3)SSC[C@@H](C(=O)N3CCC[C@H]3C(=O)NCCCCCN)NC(=O)[C@H](CC(N)=O)NC(=O)[C@H](C(C)C)NC(=O)[C@H](Cc3ccccc3)NC2=O)cc1` ([dY](Et)FVNCP-{NH(CH2)5NH2}; linker N-5 via X1) [listing 1 of 2 here], the Ki turned out to be 30 nM on Vasopressin V2 receptor [1] and 7.2 nM on Vasopressin V2 receptor [2].

The molecule `CCOc1ccc(C[C@H]2NC(=O)CC3(CCCCC3)SSC[C@@H](C(=O)N3CCC[C@H]3C(=O)NCCCCCN)NC(=O)[C@H](CC(N)=O)NC(=O)[C@H](C(C)C)NC(=O)[C@H](Cc3ccccc3)NC2=O)cc1` ([dY](Et)FVNCP-{NH(CH2)5NH2}; linker N-5 via X1) [listing 2 of 2 here] yielded an ED300 with Rattus norvegicus of 0.027 mg/kg.

Consider `CCOc1ccc(C[C@H]2NC(=O)CC3(CCCCC3)SSC[C@@H](C(=O)N3CCC[C@H]3C(=O)N[C@@H](CCCNC(=N)N)C(N)=O)NC(=O)[C@H](CC(N)=O)NC(=O)[C@H](C(C)C)NC(=O)[C@H](Cc3ccccc3)NC2=O)cc1` ([dY](Et)FVNCPR-NH2; linker N-5 via X1), for which the ED300 with Rattus norvegicus came to 0.0092 mg/kg.

As for `CCOc1ccc(C[C@H]2NC(=O)CC3(CCCCC3)SSC[C@@H](C(=O)N3CCC[C@H]3C(=O)N[C@@H](CCCN=C(N)N)C(=O)NCC(N)=O)NC(=O)[C@H](CC(N)=O)NC(=O)[C@H](C(C)C)NC(=O)[C@H](Cc3ccccc3)NC2=O)cc1` ([dY](Et)FVNCPRG-NH2; linker N-5 via X1), the ED300 in the experiment on Rattus norvegicus amounted to 0.0112 mg/kg.
